Source: patent US10294244B2, “2,3-dihydro-thiazolo[3,2-A]pyridin-5-one derivatives, intermediates thereof, and their use as antibacterial agents” (Quretech Bio AB, priority 2014, dated 2019)

Test system: C. trachomatis serovar LGV-L2
Assay: Inhibition of infectious Chlamydia progenies (C. trachomatis infectivity, reinfection of HeLa cells, IFU count)
Type: cell-based
Details: infected HeLa cells, MOI 0.3, compound added 1 hpi, 44-48 h, relative to DMSO-treated control; for inhibition at 2.5 µM: 2.5 uM compound; for inhibition at 10 µM: 10 uM compound; for inhibition at 50 µM: 50 uM compound; for inhibition at 100 µM: 100 uM compound
Experimental: Cell Culture, C. trachomatis Infections, and Determination of C. trachomatis Infectivity.
HeLa cells were infected with C. trachomatis serovar LGV-L2 at an MOI of 0.3. At 1 hpi, RPMI media containing the different dilutions of the tested compounds in DMSO were added. The different compounds were dissolved to 20 mM in DMSO and were then diluted with RPMI media to be added at 2.5 to 100 μM. After 44-48 h incubation, the cells were osmotically lysed by the addition of cold sterile distilled water to release infectious EB progeny. 5×SPG was added to equalize the osmotic pressure to a 1×SPG isotonic condition. An equal amount of HBSS (Hanks balanced salt solution) (Gibco/Invitrogen) was added to the lysate (yielding a 1:1 dilution) and 10-fold serial dilutions of the resulting mixture was used to infect fresh HeLa cells. At 1 hpi, the inoculum was replaced with RPMI media and the infection allowed to progress for 44-48 hours before fixation and staining. Fixation was performed by adding methanol for 5 minutes and the cells were subsequently washed with phosphate buffered saline (PBS). The chlamydial inclusions were stained by a primary rabbit anti-Chlamydia antibody (generated in-house) and a secondary donkey anti-rabbit FITC-labelled antibody (Jackson ImmunoResearch). The DNA of the cells and Chlamydia was stained by the addition of DAPI. The stained cells were analyzed by an ArrayScan automated scanner (ArrayScan VTI HCS, Thermo Scientific). Data were presented as the relative numbers of IFUs in treated infections compared to the numbers of IFUs in DMSO-treated control infections.
The compounds of Examples 1-33 were tested for inhibition of infectious Chlamydia progenies at concentrations of 2.5 μM, 10 μM, 50 μM and 100 μM. In this document μM stands for micromolar. The compounds of the present disclosure were considered to have antibacterial activity if they provided 50% or more inhibition of infectious Chlamydia progenies using at least one of the tested concentrations in Table 1.

Compound	inhibition at 2.5 µM [%]	inhibition at 10 µM [%]	inhibition at 50 µM [%]	inhibition at 100 µM [%]
COc1c(Cc2cccc(C)c2C)c(N)c(=O)n2c1SC[C@H]2C(=O)Nc1ccc(C)cc1 [Example 7, {(3R)-5-Amino-7-methoxy-4-oxo-6-[(2,3-xylyl)methyl]-1-thia-3a-aza-3-indanyl}(p-toluidino)formaldehyde]	90	100	–	–
O=C(Nc1ccccc1)[C@@H]1CSc2c(C(F)(F)F)c(Cc3cccc4ccccc34)cc(=O)n21 [Example 12, {(3R)-6-[(1-Naphthyl)methyl]-4-oxo-7-(trifluoromethyl)-1-thia-3a-aza-3-indanyl}anilinoformaldehyde]	98	100	–	–
CC(C)COc1c(Cc2cccc3ccccc23)cc(=O)n2c1SC[C@H]2C(=O)O [Example 30, (3R)-7-Isobutoxy-6-[(1-naphthyl)methyl]-4-oxo-1-thia-3a-aza-3-indancarboxylic acid]	–	–	67	90
COc1c(Cc2cccc(C)c2C)c(N)c(=O)n2c1SC[C@H]2c1nc(-c2ccccc2)no1 [Example 14, (3R)-5-Amino-7-methoxy-3-(3-phenyl-1,2,4-oxadiazol-5-yl)-6-[(2,3-xylyl)methyl]-1-thia-3a-aza-4-indanone]	76	100	–	–
COc1c(Cc2cccc(C)c2C)c(N)c(=O)n2c1SC[C@H]2C(=O)Nc1cc(C)cc(F)c1 [Example 8, {(3R)-5-Amino-7-methoxy-4-oxo-6-[(2,3-xylyl)methyl]-1-thia-3a-aza-3-indanyl}(3-fluoro-5-toluidino)formaldehyde]	87	100	–	–
COc1c(Cc2cccc3ccccc23)c(N)c(=O)n2c1SC[C@H]2C(=O)Nc1ccc(C)cc1 [Example 9, {(3R)-5-Amino-7-methoxy-6-[(1-naphthyl)methyl]-4-oxo-1-thia-3a-aza-3-indanyl}(p-toluidino)formaldehyde]	89	100	–	–
COc1c(Cc2cccc(C)c2C)cc(=O)n2c1SC[C@H]2c1nnc(-c2ccccc2)o1 [Example 15, (3R)-7-Methoxy-3-(5-phenyl-1,3,4-oxadiazol-2-yl)-6-[(2,3-xylyl)methyl]-1-thia-3a-aza-4-indanone]	84	100	–	–
O=C(O)[C@@H]1CSc2c(C(F)(F)F)c(Cc3cccc4ccccc34)cc(=O)n21 [Example 29, (3R)-6-[(1-Naphthyl)methyl]-4-oxo-7-(trifluoromethyl)-1-thia-3a-aza-3-indancarboxylic acid]	–	–	–	56
COC(=O)Nc1c(Cc2cccc3ccccc23)cc(=O)n2c1SC[C@H]2C(=O)Nc1ccccc1 [Example 27, {(3R)-7-(Methoxycarbonylamino)-6-[(1-naphthyl)methyl]-4-oxo-1-thia-3a-aza-3-indanyl}anilinoformaldehyde]	–	96	98	–
COc1c(Cc2cccc(C)c2C)cc(=O)n2c1SC[C@H]2c1nc(-c2ccccc2)no1 [Example 16, (3R)-7-Methoxy-3-(3-phenyl-1,2,4-oxadiazol-5-yl)-6-[(2,3-xylyl)methyl]-1-thia-3a-aza-4-indanone]	81	100	–	–
Cc1ccc(Cc2cc(=O)n3c(c2N(C)C)SC[C@H]3C(=O)O)c2ccccc12 [Example 32, (3R)-7-(Dimethylamino)-6-[(4-methyl-1-naphthyl)methyl]-4-oxo-1-thia-3a-aza-3-indancarboxylic acid]	–	–	91	99
O=C(O)[C@@H]1CSc2c(OCC3CC3)c(Cc3cccc4ccccc34)cc(=O)n21 [Example 28, (3R)-7-(Cyclopropylmethoxy)-6-[(1-naphthyl)methyl]-4-oxo-1-thia-3a-aza-3-indancarboxylic acid]	–	–	–	56
COc1c(Cc2cccc(C)c2C)cc(=O)n2c1SC[C@H]2C(=O)Nc1ccccc1 [Example 3, {(3R)-7-Methoxy-4-oxo-6-[(2,3-xylyl)methyl]-1-thia-3a-aza-3-indanyl}anilinoformaldehyde]	95	100	–	–
